Source: article PMC9669179 (Epilepsia, 2022)
Like-named read-outs stand apart in the source and are kept apart here.

Legend:
[1] = test system: adult male CF-1 mice; experiment: 6 Hz 44 mA seizure test in mice; assay type: in vivo, mouse
[2] = test system: adult Sprague-Dawley rats; experiment: Maximal electroshock; assay type: in vivo, rat; details: MES; for Efficacy in rats (number seizure protected /number tested): low dose i.p. (CLB 17, CBZ 3, VPA 165 mg/kg)
[3] = test system: adult male CF-1 mice; details: mouse, 6 Hz 44 mA, i.p.; cited from earlier work
[4] = test system: adult Sprague-Dawley rats; details: rat, MES, i.p.; cited from earlier work
[5] = test system: mice; details: mouse, cited from earlier work
[6] = test system: rats; details: rat, cited from earlier work
[7] = Brain pharmacokinetics in mice
[8] = Brain pharmacokinetics in rats; details: rat
[9] = Plasma pharmacokinetics in mice; details: CF-1, mouse, in vivo, ip
[10] = Plasma pharmacokinetics in rats; details: Sprague Dawley, rat, in vivo, ip
[11] = test system: adult CF-1 mice; experiment: Maximal electroshock; assay type: in vivo, mouse; details: MES
[12] = CF-1, mouse, in vivo
[13] = CF-1, mouse, in vivo; remark: listed apart in the source
[14] = rat, in vivo
[15] = Sprague Dawley, rat, in vivo
[16] = test system: adult CF-1 mice; details: mouse, MES, i.p.; cited from earlier work
[17] = in vivo; details: CF-1, mouse, ip
[18] = in vivo; details: CF-1, mouse, ip; remark: listed apart in the source
[19] = in vivo; details: Sprague Dawley, rat, ip
[20] = in vivo; details: Sprague Dawley, rat, ip; remark: listed apart in the source
[21] = mouse, low dose i.p.: CLB 7, CBZ 7, VPA 260, LEV 20 mg/kg
[22] = low dose i.p.: CLB 17, CBZ 3, VPA 165, LEV 14 mg/kg

CN1C(=O)CC(=O)N(c2ccccc2)c2cc(Cl)ccc21 [CLB, Clobazam]
Efficacy in mice (number seizure protected/number tested) ([1]; high dose i.p. (CLB 17, VPA 570, LEV 500 mg/kg), time test 0.25 h): 4/4 | Efficacy in mice (number seizure protected/number tested) ([1]; high dose i.p. (CLB 17, VPA 570, LEV 500 mg/kg), time test 0.5 h): 4/4 | Efficacy in mice (number seizure protected/number tested) ([1]; high dose i.p. (CLB 17, VPA 570, LEV 500 mg/kg), time test 1 h): 3/4 | Efficacy in mice (number seizure protected/number tested) ([1]; high dose i.p. (CLB 17, VPA 570, LEV 500 mg/kg), time test 2 h): 3/4 | Efficacy in mice (number seizure protected/number tested) ([1]; high dose i.p. (CLB 17, VPA 570, LEV 500 mg/kg), time test 4 h): 1/4 | Efficacy in mice (number seizure protected/number tested) ([1]; high dose i.p. (CLB 17, VPA 570, LEV 500 mg/kg), time test 8 h): 0/4 | Efficacy in mice (number seizure protected/number tested) ([1]; low dose i.p. (CLB 7, VPA 260, LEV 20 mg/kg), time test 0.25 h): 2/4 | Efficacy in mice (number seizure protected/number tested) ([1]; low dose i.p. (CLB 7, VPA 260, LEV 20 mg/kg), time test 0.5 h): 1/4 | Efficacy in mice (number seizure protected/number tested) ([1]; low dose i.p. (CLB 7, VPA 260, LEV 20 mg/kg), time test 1 h): 3/4 | Efficacy in mice (number seizure protected/number tested) ([1]; low dose i.p. (CLB 7, VPA 260, LEV 20 mg/kg), time test 2 h): 0/4 | Efficacy in mice (number seizure protected/number tested) ([1]; low dose i.p. (CLB 7, VPA 260, LEV 20 mg/kg), time test 4 h): 0/4 | Efficacy in mice (number seizure protected/number tested) ([1]; low dose i.p. (CLB 7, VPA 260, LEV 20 mg/kg), time test 8 h): 0/4 | Efficacy in rats (number seizure protected /number tested) ([2]; time test 0.25 h): 0/4 | Efficacy in rats (number seizure protected /number tested) ([2]; time test 0.5 h): 0/4 | Efficacy in rats (number seizure protected /number tested) ([2]; time test 1 h): 0/4 | Efficacy in rats (number seizure protected /number tested) ([2]; time test 2 h): 0/4 | Efficacy in rats (number seizure protected /number tested) ([2]; time test 4 h): 0/4 | Efficacy in rats (number seizure protected /number tested) ([2]; time test 8 h): 0/4 | Seizure protection (in words) ([2]; rats, high dose i.p. (CLB 37, VPA 315 mg/kg)): seizure protection was observed within the first hour | Seizure protection (in words) ([2]; rats, low dose i.p. (CLB 17, VPA 165 mg/kg)): did not protect | ED50 - low dose [3]: 7 mg/kg | ED50 - low dose [4]: 17 mg/kg | TD50 - high dose ([5]; rotarod test, i.p.): 17 mg/kg | TD50 - high dose ([6]; minimum motor impairment test, i.p.): 37 mg/kg | Tmax ([7]; CF-1, mouse, in vivo, ip): 15 min | Brain AUC (0-8 hr) [7, 21]: 1.74 ng·h/mg | Brain Cmax [7, 21]: 2.26 ng/mg | Brain Cmin [7, 21]: 0.014 ng/mg | Tmax ([8]; Sprague Dawley, in vivo, ip): 15 min | Brain AUC (0-8 hr) [8, 22]: 2.88 ng·h/mg | Brain Cmax [8, 22]: 2.90 ng/mg | Brain Cmin [8, 22]: 0.027 ng/mg | Tmax [9]: 15 min | Tmax [10]: 15 min

NC(=O)N1c2ccccc2C=Cc2ccccc21 [CBZ, carbamazepine]
Efficacy in mice (number seizure protected/number tested) ([11]; high dose i.p. (CBZ 40 mg/kg), time test 0.25 h): 4/4 | Efficacy in mice (number seizure protected/number tested) ([11]; high dose i.p. (CBZ 40 mg/kg), time test 0.5 h): 4/4 | Efficacy in mice (number seizure protected/number tested) ([11]; high dose i.p. (CBZ 40 mg/kg), time test 1 h): 4/4 | Efficacy in mice (number seizure protected/number tested) ([11]; high dose i.p. (CBZ 40 mg/kg), time test 2 h): 4/4 | Efficacy in mice (number seizure protected/number tested) ([11]; high dose i.p. (CBZ 40 mg/kg), time test 4 h): 4/4 | Efficacy in mice (number seizure protected/number tested) ([11]; high dose i.p. (CBZ 40 mg/kg), time test 8 h): 0/4 | Efficacy in mice (number seizure protected/number tested) ([11]; low dose i.p. (CBZ 7 mg/kg), time test 0.25 h): 3/4 | Efficacy in mice (number seizure protected/number tested) ([11]; low dose i.p. (CBZ 7 mg/kg), time test 0.5 h): 3/4 | Efficacy in mice (number seizure protected/number tested) ([11]; low dose i.p. (CBZ 7 mg/kg), time test 1 h): 2/4 | Efficacy in mice (number seizure protected/number tested) ([11]; low dose i.p. (CBZ 7 mg/kg), time test 2 h): 0/4 | Efficacy in mice (number seizure protected/number tested) ([11]; low dose i.p. (CBZ 7 mg/kg), time test 4 h): 0/4 | Efficacy in mice (number seizure protected/number tested) ([11]; low dose i.p. (CBZ 7 mg/kg), time test 8 h): 0/4 | Seizure protection (in words) ([11]; mice, high dose CBZ 40 mg/kg i.p.): complete protection | Efficacy in rats (number seizure protected /number tested) ([2]; time test 0.25 h): 1/4 | Efficacy in rats (number seizure protected /number tested) ([2]; time test 0.5 h): 1/4 | Efficacy in rats (number seizure protected /number tested) ([2]; time test 1 h): 0/4 | Efficacy in rats (number seizure protected /number tested) ([2]; time test 2 h): 0/4 | Efficacy in rats (number seizure protected /number tested) ([2]; time test 4 h): 0/4 | Efficacy in rats (number seizure protected /number tested) ([2]; time test 8 h): 0/4 | Period for which 100% seizure protection was sustained ([2]; rats, high-dose CBZ i.p.): ~ 2 hrs | Seizure protection ([2]; rats, high-dose CBZ i.p.): 100% | Seizure protection (% protected) ([2]; rats, low-dose CBZ i.p., within the first hour): 25% | High-dose exposures greater than expected from low-dose [12]: 50 - 60% | Plasma Dose Prop (AUC) [12]: 1.49 | Plasma Dose Prop (Cmax) [12]: 0.917 | Plasma t1/2 ([12]; ip): 66.6 min | Brain Dose Prop (AUC) [13]: 1.64 | Brain t1/2 ([13]; ip): 59.4 min | Plasma Dose Prop (AUC) ([14]; Sprague Dawley): 2.29 | Plasma Dose Prop (Cmax) ([14]; Sprague Dawley): 1.138 | Plasma t1/2 ([14]; Sprague Dawley, ip): 70.8 min | High-dose concentrations relative to expected from low-dose [14]: approximately two-fold | Brain Dose Prop (AUC) [15]: 1.89 | Brain t1/2 ([15]; ip): 72 min | ED50 - low dose [16]: 7 mg/kg | ED50 - low dose [4]: 3 mg/kg | Tmax [17]: 15 min | half-life ([17]; Plasma t1/2): 78 min | Tmax [18]: 15 min | half-life ([18]; Brain t1/2): 31.2 min | Tmax [19]: 15 min | half-life ([19]; Plasma t1/2): 49.2 min | Tmax [20]: 15 min | half-life ([20]; Brain t1/2): 46.2 min | TD50 - high dose ([5]; in vivo, ip): 40 mg/kg | TD50 - high dose ([6]; in vivo, ip): 24 mg/kg
